Results as given in publication PMC4501388 (European journal of medicinal chemistry, 2015).
Several values for one entry are separate records, joined by “and”; a condition that tells them apart may be missing. Identical values can stand only once. One block for each substance: values may come before it.

Legend:
TK1 [1] = molecular target: T1, TK1 (Homo sapiens, UniProt P04183); experiment: Phosphate transfer assay; type: biochemical; conditions: 100 μM nucleoside analogue and 100 μM ATP
T1 sequence (P04183 1-234): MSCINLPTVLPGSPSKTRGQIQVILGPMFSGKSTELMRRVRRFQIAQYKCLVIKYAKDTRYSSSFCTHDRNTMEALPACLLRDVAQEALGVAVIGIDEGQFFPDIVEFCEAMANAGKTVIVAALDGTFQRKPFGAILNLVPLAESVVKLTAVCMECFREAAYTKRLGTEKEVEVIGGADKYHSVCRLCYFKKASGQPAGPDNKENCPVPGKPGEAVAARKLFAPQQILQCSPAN

TK1 [2] = molecular target: T1, TK1; experiment: Enzyme kinetic studies; type: biochemical; conditions: 1.95–500 μM nucleoside analogue and 100 μM ATP
[3] = Stability during storage in aqueous solutions; type: physicochemical
TK1 [4] = molecular target: T1, TK1; experiment: Competitive TK1 inhibition studies; conditions: 0.5 μM dThd, 5 mM ATP, 0–250.00 μM nucleoside analogue
[5] = test system: rats bearing intracerebral RG2 gliomas; experiment: In vivo biodistribution study, boron determination by ICP-OES; parameters: species or system rat
RG2 glioma cells = experiment: In vitro metabolomic HRMS study; type: cell-based, rat
[6] = test system: TK1(+)- and TK1(−) L929 cells; conditions: cited from earlier work

rPR (phosphorylation rate relative to that of dThd) (TK1 [1]): 19.2 ± 4.5%
Substance: 3-({2-[2-(closo-1,7-Carboranyl)ethyl]amino}-2-oxoethyl)thymidine [Compound 28]

rPR (phosphorylation rate relative to that of dThd) (TK1 [1]): 35.2 ± 5.3%
Substance: 3-({2-[2-(closo-1,7-Carboranyl)ethyl]amino}ethyl)thymidine [Compound 16]

rPR (phosphorylation rate relative to that of dThd) (TK1 [1]): 24.5 ± 7.8%
Substance: 3-({2-[3-(closo-1,7-Carboranyl)propyl]amino}ethyl)thymidine [Compound 17]

rPR (phosphorylation rate relative to that of dThd) (TK1 [1]): 14.5 ± 4.8%
Substance: 3-({2-[3-(closo-1,7-carboranyl)propyl]amino}-2-oxoethyl)thymidine [Compound 29]

rPR (phosphorylation rate relative to that of dThd) (TK1 [1]): 44.4 ± 8.7%
Substance: 3-({2-[4-(closo-1,7-Carboranyl)butyl]amino}ethyl)thymidine [Compound 18]

rPR (phosphorylation rate relative to that of dThd) (TK1 [1]): 12.3 ± 8.7%
Substance: 3-({2-[4-(closo-1,7-carboranyl)butyl]amino}-2-oxoethyl)thymidine [Compound 30]

rPR (phosphorylation rate relative to that of dThd) (TK1 [1]): 18.8 ± 4.8%
Substance: 3-({3-[3-(closo-1,7-Carboranyl)propyl]amino}propyl)thymidine [Compound 19]

rPR (phosphorylation rate relative to that of dThd) (TK1 [1]): 19.5 ± 5.3%
Substance: 3-({3-[4-(closo-1,7-Carboranyl)butyl]amino}propyl)thymidine [Compound 20]

rPR (phosphorylation rate relative to that of dThd) (TK1 [1]): 45% and 45.2 ± 3.8%
Km (TK1 [2]): 80.1 ± 37.6 µM
kcat (TK1 [2]): 5.9 s⁻¹
rkcat/Km (kcat/Km relative to that of 1) (TK1 [2]): 2.0%
Stability during storage [3]: stable
IC50 (TK1 [4]): > 250 µM
Substance: 3-({4-[3-(closo-1,7-Carboranyl)propyl]amino}butyl)thymidine [Compound 21]

rPR (phosphorylation rate relative to that of dThd) (TK1 [1]): 38% and 38.0 ± 6.5%
Km (TK1 [2]): 39.8 ± 10.4 µM
kcat (TK1 [2]): 5.4 s⁻¹
rkcat/Km (kcat/Km relative to that of 1) (TK1 [2]): 3.7%
Stability during storage [3]: stable
IC50 (TK1 [4]): > 250 µM
Substance: 3-({4-[4-(closo-1,7-Carboranyl)butyl]amino}butyl)thymidine [Compound 22]

rPR (phosphorylation rate relative to that of dThd) (TK1 [1]): 40.0% and 40.0 ± 11.2%
Km (TK1 [2]): 24.3 ± 2.1 µM
kcat (TK1 [2]): 5.1 s⁻¹
rkcat/Km (kcat/Km relative to that of 1) (TK1 [2]): 5.8%
Boron concentration, Tumor ([5]; 100 μg boron i.c. by ALZET pump over 24 h, RG2 glioma, Fischer rats): 8.9 µg/g and 8.8 ± 2.9 µg/g
Ratio T/Bl (tumor/blood ratio) ([5]; tumor to blood boron ratio, i.c. over 24 h): 9.3
Ratio T/B ([5]; tumor to brain boron ratio, i.c. over 24 h): 4.3
Di- and triphosphate metabolites (RG2 glioma cells; RG2 cells, HRMS positive and negative ion mode): could not be detected
5′-Monophosphate metabolite formation (RG2 glioma cells; TK1(+) RG2 cells, 17.5 μM, 2 hours, HRMS): monophosphorylated
Stability during storage [3]: stable
IC50 (TK1 [4]): 37.5 ± 6.3 µM
Substance: 3-[5-{2-(2,3-dihydroxyprop-1-yl)-o-carboran-1-yl}pentan-1-yl]thymidine [Compound 2]
Di- and triphosphorylation ([6]; TK1(+) L929 cells): did not seem to occur
Intracellular monophosphate metabolite formation ([6]; TK1(+) vs TK1(−) L929 cells, tritiated compound): production of tritiated 2-MP in TK1(+) L929 cells but not in their TK1(−) L929 counterparts

rPR (phosphorylation rate relative to that of dThd) (TK1 [1]): ~ 30%
Substance: 3-{[3-(closo-1,7-Carboranyl)propyl]amino}thymidine [Compound 9]
